What was measured:
ERRγ [1] = molecular target: T1, ERRγ (Homo sapiens, UniProt P62508); assay: TR-FRET (LanthaScreen) ERRγ binding assay; conditions: Table 1 screening, 2-fold serial dilution from 10 μM; for IC50: read-out: ERRγ, IC50 (binding inhibition of ERRγ binding activity)
T1 construct: purchased Life Technologies
T1 sequence (P62508 233-457 limits assumed): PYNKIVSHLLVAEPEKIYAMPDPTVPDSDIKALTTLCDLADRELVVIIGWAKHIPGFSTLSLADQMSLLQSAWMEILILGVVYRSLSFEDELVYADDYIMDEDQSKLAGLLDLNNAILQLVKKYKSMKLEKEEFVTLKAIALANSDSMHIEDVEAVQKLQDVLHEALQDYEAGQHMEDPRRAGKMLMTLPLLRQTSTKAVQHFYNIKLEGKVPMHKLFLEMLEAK
Experimental: Initials creening was conducted using a well established TR-FRET based ERRγ binding assay as described in the Experimental section at a concentration of 10 μM. Serial dilutions of the synthesized compounds were used to calculate IC50 values for the binding affinity with ERRγ.
ERRγ binding assay was conducted with Lantascreen assay system (Life Technologies, Grand Island, NY, USA), which was based on TR-FRET, followed by manufacturer’s instruction. Briefly, compounds were serially diluted with 2-fold staring from 10 μM and 10 μL of each diluent was added in 384 well plate. Then, GST-conjugated ERRγ LBD (ligand-binding domain) was added to be 5 nM. Next, the mixture of fluorescien-conjugated coactivator PGC1a (final concentration to be 500 nM) and Tb-a-GST antibody (final concentration to be 5 nM) was added. The reaction mixture was incubated at rt in dark state for 1 h.

ERRγ [2] = molecular target: T2, ERRγ (Homo sapiens, UniProt P62508); assay: ERRγ functional assay: GAL4-ERRγ luciferase reporter gene in AD293 cells; assay type: cell-based; conditions: for inhibition at 10 µM: AD293, 24 h, screening concentration of 10 μM, read-out: transcriptional repression; for ERRγ functional activity in the cellular system (in words): 10 μM, reporter-gene assay, compared with control ligand 4
T2 sequence (P62508 233-458 limits assumed): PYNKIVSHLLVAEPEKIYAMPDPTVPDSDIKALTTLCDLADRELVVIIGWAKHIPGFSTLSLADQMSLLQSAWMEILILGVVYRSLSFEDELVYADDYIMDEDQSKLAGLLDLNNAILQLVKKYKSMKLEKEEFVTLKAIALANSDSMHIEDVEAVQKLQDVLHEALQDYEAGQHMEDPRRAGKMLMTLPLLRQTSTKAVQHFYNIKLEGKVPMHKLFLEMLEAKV
Experimental: Along with the binding assay campaign, functional activity was determined in order to validate the utility of the binding affinity in a cellular context as described in the Experimental.
Figure 2 Cell based reporter-gene assay screening of 16 analogs ERRγ binding activity in cell was measured by luciferase activity using co-transfection system with GAL4-ERRγ and pFR-luciferase reporter gene.
AD293 cells were cultured in Dulbecco’ modified Eagle medium (DMEM) High glucose supplemented with 0.5% FBS (Hyclone, Logan, UT, USA). After 24 h, culture media was changed with DMEM High glucose containing 10% FBS. DNA constructs, which includes pCMX-Gal4-ERRγ, pFR-luciferase reporter plasmid, pCMV-β-gal were transiently transfected into AD293 cells using TransIT-LT1 transfection reagent (Mirus, Madison, WI, USA) for 24 h. Then, transfected cells were treated with compounds for 24 h and harvested for detection of luciferase activity and β-gal activity. All cells were incubated at 37 °C under 5% CO2 in a humidified incubator [5].

[3] = Metabolic stability assay in liver microsomes (human); assay type: in vitro ADME; conditions: 1 μM, 30 min, 37 °C, NADPH
Experimental: (§1) The metabolic stability assay was performed by incubation of human and selected animal liver microsomes (most often dog, rat and mouse), at 37 °C with a test compound at a final concentration of 1 μM, in the presence of 0.5 mg/mL microsomal protein and NADPH regeneration system, in a total volume of 100 μL of 100 mM phosphate buffer, pH 7.4. The incubation was started by the addition of NADPH regeneration system and terminated with adding 40 μL of ice-cold acetonitrile at 0 and 30 min. […] Incubations terminated prior to addition of NADPH regeneration system (time point 0 min) were used as standards, defined as 100%. Percent of the parent compound remaining was calculated by comparing peak areas.

CYP3A = assay: CYP inhibition assay, cocktail, human liver microsomes (midazolam 1'-hydroxylase); assay type: in vitro ADME; conditions: 10 μM, activity in presence of inhibitor as % of control
CYP1A2 = molecular target: T3, CYP1A2 (Homo sapiens, UniProt P05177); assay: CYP inhibition assay, cocktail, human liver microsomes (phenacetin O-deethylase); assay type: in vitro ADME; conditions: 10 μM, activity in presence of inhibitor as % of control
T3 sequence (P05177 1-516): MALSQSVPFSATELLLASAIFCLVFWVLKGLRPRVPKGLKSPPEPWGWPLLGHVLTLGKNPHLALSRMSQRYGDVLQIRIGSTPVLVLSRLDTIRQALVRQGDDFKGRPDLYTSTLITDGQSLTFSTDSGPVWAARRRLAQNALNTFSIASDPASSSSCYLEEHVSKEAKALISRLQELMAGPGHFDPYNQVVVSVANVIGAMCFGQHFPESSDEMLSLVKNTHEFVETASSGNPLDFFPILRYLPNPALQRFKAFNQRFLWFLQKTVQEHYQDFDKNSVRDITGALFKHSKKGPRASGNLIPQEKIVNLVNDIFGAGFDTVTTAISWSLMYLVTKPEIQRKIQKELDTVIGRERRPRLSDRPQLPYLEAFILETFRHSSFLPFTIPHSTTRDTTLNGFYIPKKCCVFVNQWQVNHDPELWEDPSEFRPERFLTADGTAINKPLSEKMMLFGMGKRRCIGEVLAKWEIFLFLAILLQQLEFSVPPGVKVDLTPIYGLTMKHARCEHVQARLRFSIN

[4] = Metabolic stability assay in liver microsomes (rat); assay type: in vitro ADME; conditions: 1 μM, 30 min, 37 °C, NADPH
Experimental: as §1

CYP2C19 = CYP2C19 (Homo sapiens, UniProt P33261); assay: CYP inhibition assay, cocktail, human liver microsomes (S-mephenytoin 4-hydroxylase); assay type: in vitro ADME; conditions: 10 μM, activity in presence of inhibitor as % of control
Chain of CYP2C19 (P33261 whole entry): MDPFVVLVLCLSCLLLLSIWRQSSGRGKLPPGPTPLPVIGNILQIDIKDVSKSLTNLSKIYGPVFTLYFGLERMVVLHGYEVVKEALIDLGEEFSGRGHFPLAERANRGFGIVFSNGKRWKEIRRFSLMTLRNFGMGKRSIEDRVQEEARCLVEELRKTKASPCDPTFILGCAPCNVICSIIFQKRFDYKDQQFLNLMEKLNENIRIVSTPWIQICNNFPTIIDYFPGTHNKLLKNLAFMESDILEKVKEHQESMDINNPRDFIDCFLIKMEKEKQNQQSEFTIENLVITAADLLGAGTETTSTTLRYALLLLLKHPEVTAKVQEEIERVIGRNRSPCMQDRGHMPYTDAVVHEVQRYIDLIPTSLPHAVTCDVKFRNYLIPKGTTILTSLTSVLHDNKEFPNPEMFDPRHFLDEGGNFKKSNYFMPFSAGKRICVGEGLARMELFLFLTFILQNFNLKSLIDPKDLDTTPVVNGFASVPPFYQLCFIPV

CYP2D6 = CYP2D6 (Homo sapiens, UniProt P10635); assay: CYP inhibition assay, cocktail, human liver microsomes (dextromethorphan O-demethylase); assay type: in vitro ADME; conditions: 10 μM, activity in presence of inhibitor as % of control
Chain of CYP2D6 (P10635 whole entry): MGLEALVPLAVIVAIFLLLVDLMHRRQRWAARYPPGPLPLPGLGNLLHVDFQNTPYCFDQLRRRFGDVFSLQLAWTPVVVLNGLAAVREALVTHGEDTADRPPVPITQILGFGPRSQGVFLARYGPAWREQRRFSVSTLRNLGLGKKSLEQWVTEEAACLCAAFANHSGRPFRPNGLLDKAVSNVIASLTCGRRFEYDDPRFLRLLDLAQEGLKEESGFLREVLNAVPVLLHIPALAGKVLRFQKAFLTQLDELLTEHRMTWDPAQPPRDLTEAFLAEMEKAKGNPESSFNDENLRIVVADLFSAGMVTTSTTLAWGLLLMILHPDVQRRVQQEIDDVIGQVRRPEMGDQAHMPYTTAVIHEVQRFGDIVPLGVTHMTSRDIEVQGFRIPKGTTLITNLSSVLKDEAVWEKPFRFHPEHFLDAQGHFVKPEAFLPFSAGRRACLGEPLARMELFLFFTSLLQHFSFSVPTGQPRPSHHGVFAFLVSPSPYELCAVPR

CYP2C9 = CYP2C9 (Homo sapiens, UniProt P11712); assay: CYP inhibition assay, cocktail, human liver microsomes (tolbutamide 4-hydroxylase); assay type: in vitro ADME; conditions: 10 μM, human liver microsomes; activity in presence of inhibitor as % of control
Chain of CYP2C9 (P11712 whole entry): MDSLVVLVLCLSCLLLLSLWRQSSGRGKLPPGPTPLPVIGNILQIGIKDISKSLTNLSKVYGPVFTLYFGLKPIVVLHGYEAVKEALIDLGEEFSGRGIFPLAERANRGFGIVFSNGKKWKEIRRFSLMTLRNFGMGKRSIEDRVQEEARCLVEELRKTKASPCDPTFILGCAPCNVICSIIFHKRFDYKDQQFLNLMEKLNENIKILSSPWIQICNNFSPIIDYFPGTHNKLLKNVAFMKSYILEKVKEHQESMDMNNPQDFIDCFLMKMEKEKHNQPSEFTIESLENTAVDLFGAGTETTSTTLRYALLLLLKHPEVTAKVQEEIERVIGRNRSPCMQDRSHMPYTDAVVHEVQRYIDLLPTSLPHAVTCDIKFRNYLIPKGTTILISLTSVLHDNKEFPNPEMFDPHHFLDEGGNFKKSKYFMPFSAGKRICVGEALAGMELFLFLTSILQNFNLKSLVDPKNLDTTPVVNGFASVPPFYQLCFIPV

[5] = Metabolic stability assay in liver microsomes (dog); assay type: in vitro ADME; conditions: 1 μM, 30 min, 37 °C, NADPH
Experimental: as §1

[6] = Metabolic stability assay in liver microsomes (mouse); assay type: in vitro ADME; conditions: 1 μM, 30 min, 37 °C, NADPH
Experimental: as §1

SMILES | IC50 (ERRγ [1]) [µM] | inhibition at 10 µM (ERRγ [2]) [%] | other results
CN(C)CCOc1ccc(/C(=C(/CCCO)c2cccnc2)c2ccc(O)cc2)cc1 [Compound 15d, (Z)-4-(1-(4-(2-(Dimethylamino)ethoxy)phenyl)-5-hydroxy-2-(pyridin-3-yl)pent-1-en-1-yl)phenol] | 3.1 | – | –
CN(C)CCOc1ccc(/C(=C(/CCCO)c2ccc3nccn3c2)c2ccc(O)cc2)cc1 [Compound 15i, (Z)-4-(1-(4-(2-(Dimethylamino)ethoxy)phenyl)-5-hydroxy-2-(imidazo[1,2-a]pyridin-6-yl)pent-1-en-1-yl)phenol] | > 10 | ~0 | –
COc1ccc(/C(CCCO)=C(/c2ccc(O)cc2)c2ccc(OCCN(C)C)cc2)cn1 [Compound 15c, (Z)-4-(1-(4-(2-(Dimethylamino)ethoxy)phenyl)-5-hydroxy-2-(6-methoxypyridin-3-yl)pent-1-en-1-yl)phenol] | > 10 | ~50 | –
CN(C)CCOc1ccc(/C(=C/CCCO)c2ccc(O)cc2)cc1 [Compound 15a, (E)-4-(1-(4-(2-(Dimethylamino)ethoxy)phenyl)-5-hydroxypent-1-en-1-yl)phenol] | > 10 | ~0 | –
COCCC/C(=C(\c1ccc(O)cc1)c1ccc(OCCN(C)C)cc1)c1cccnc1 [Compound 13a, (Z)-4-(1-(4-(2-(Dimethylamino)ethoxy)phenyl)-5-methoxy-2-(pyridin-3-yl)pent-1-en-1-yl)phenol] | 0.99 | – | ERRγ functional activity in the cellular system (in words) (ERRγ [2]): comparable regression of the ERRγ transcriptional activity
COCCC/C(=C(\c1ccc(O)cc1)c1ccc(OCCN(C)C)cc1)c1ccncc1 [Compound 13b, (Z)-4-(1-(4-(2-(Dimethylamino)ethoxy)phenyl)-5-methoxy-2-(pyridin-4-yl)pent-1-en-1-yl)phenol] | > 10 | ~50 | –
COCCC/C(=C(\c1ccc(O)cc1)c1ccc(OCCN(C)C)c(C(F)(F)F)c1)c1cccnc1 [Compound 16] | > 10 | ~0 | ERRγ, IC50 (binding inhibition of ERRγ binding activity) (ERRγ [1]): no affinity
CN(C)CCOc1ccc(/C(=C(/CCCO)c2ccc(O)cc2)c2ccc(O)cc2)cc1 [Compound 15b, (Z)-4,4′-(1-(4-(2-(Dimethylamino)ethoxy)phenyl)-5-hydroxypent-1-ene-1,2-diyl)diphenol] | 2.32 | – | –
CN(C)CCOc1ccc(/C(=C(/CCCO)c2ccc3ccncc3c2)c2ccc(O)cc2)cc1 [Compound 15j, (Z)-4-(1-(4-(2-(Dimethylamino)ethoxy)phenyl)-5-hydroxy-2-(isoquinolin-7-yl)pent-1-en-1-yl)phenol] | 4.71 | – | –
COCCC/C(=C(\c1ccc(O)cc1)c1ccc(OCCN(C)C)cc1)c1ccc(C(C)C)nc1 [Compound 17, (Z)-4-(1-(4-(2-(Dimethylamino)ethoxy)phenyl)-2-(6-isopropylpyridin-3-yl)-5-methoxypent-1-en-1-yl)phenol] | > 10 | ~50 | –
CN(C)CCOc1ccc(/C(=C(/CCCO)c2ccc(N3CCOCC3)nc2)c2ccc(O)cc2)cc1 [Compound 15f, (Z)-4-(1-(4-(2-(Dimethylamino)ethoxy)phenyl)-5-hydroxy-2-(6-morpholinopyridin-3-yl)pent-1-en-1-yl)phenol] | > 10 | – | ERRγ functional activity in the cellular system (in words) (ERRγ [2]): partial agonistic activity
CN(C)CCOc1ccc(/C(=C(/CCCO)c2ccnc(F)c2)c2ccc(O)cc2)cc1 [Compound 15e, (Z)-4-(1-(4-(2-(Dimethylamino)ethoxy)phenyl)-2-(2-fluoropyridin-4-yl)-5-hydroxypent-1-en-1-yl)phenol] | 5.35 | – | ERRγ functional activity in the cellular system (in words) (ERRγ [2]): comparable regression of the ERRγ transcriptional activity
COCCC/C(=C(\c1ccc(O)cc1)c1ccc(OCCN(C)C)cc1)c1cnn(C)c1 [Compound 13c, (Z)-4-(1-(4-(2-(Dimethylamino)ethoxy)phenyl)-5-methoxy-2-(1-methyl-1H-pyrazol-4-yl)pent-1-en-1-yl)-phenol] | > 10 | ~50 | –
CN(C)CCOc1ccc(/C(=C(/CCCO)c2ccccc2)c2ccc(O)cc2)cc1 [Compound 4, GSK5182, reference compound] | – | – | MS (%), Human (percent of parent compound remaining) [3]: 43%; CYP Inhibition (% of Control), 3A4 (CYP3A): 83 % of Control; CYP Inhibition (% of Control), 1A2 (CYP1A2): 84 % of Control; MS (%), Rat (percent of parent compound remaining) [4]: 26%; CYP Inhibition (% of Control), 2C19 (CYP2C19): 78 % of Control; CYP Inhibition (% of Control), 2D6 (CYP2D6): 82 % of Control; CYP Inhibition (% of Control), 2C9 (CYP2C9): 73 % of Control; MS (%), Dog (percent of parent compound remaining) [5]: less than 10%; MS (%), Mouse (percent of parent compound remaining) [6]: less than 10%

— article PMC6273807, “Identification of Selective ERRγ Inverse Agonists” (Molecules, 2016)
